Measured values taken from ChEMBL document CHEMBL3611975, “New carbocyclic N(6)-substituted adenine and pyrimidine nucleoside analogues with a bicyclo[2.2.1]heptane fragment as sugar moiety; synthesis, antiviral, anticancer activity and X-ray crystallography” (Bioorg Med Chem, 2015).

Tests used:
[1] = Cytotoxicity against MDCK cells assessed as cell viability after 48 hrs by MTT assay; format: cell-based, Canis lupus familiaris; conditions: dog, read-out: CTD50
[2] = test system: HL-60(TB); assay: Cytotoxicity against human HL-60(TB) cells assessed as growth inhibition at 10^-5 M relative to control; format: functional; conditions: read-out: GI
[3] = test system: SR; assay: Cytotoxicity against human SR cells assessed as growth at 10^-5 M relative to control
[4] = test system: PC-3; assay: Cytotoxicity against human PC3 cells assessed as growth at 10^-5 M relative to control
[5] = test system: K562; assay: Cytotoxicity against human K562 cells assessed as growth at 10^-5 M relative to control
[6] = Cytotoxicity against human EKVX cells assessed as growth at 10^-5 M relative to control
[7] = test system: U-251; assay: Cytotoxicity against human U251 cells assessed as growth at 10^-5 M relative to control
[8] = test system: A498; assay: Cytotoxicity against human A498 cells assessed as growth at 10^-5 M relative to control
[9] = test system: HOP-92; assay: Cytotoxicity against human HOP92 cells assessed as growth at 10^-5 M relative to control
[10] = test system: HCT-15; assay: Cytotoxicity against human HCT15 cells assessed as growth at 10^-5 M relative to control
[11] = test system: HT-29; assay: Cytotoxicity against human HT-29 cells assessed as growth at 10^-5 M relative to control
[12] = test system: SW-620; assay: Cytotoxicity against human SW620 cells assessed as growth at 10^-5 M relative to control
[13] = test system: SF-295; assay: Cytotoxicity against human SF295 cells assessed as growth at 10^-5 M relative to control
[14] = test system: UACC-62; assay: Cytotoxicity against human UACC62 cells assessed as growth at 10^-5 M relative to control
[15] = test system: OVCAR-5; assay: Cytotoxicity against human OVCAR5 cells assessed as growth at 10^-5 M relative to control
[16] = Cytotoxicity against human Hs578T cells assessed as growth at 10^-5 M relative to control; conditions: Hs-578T
[17] = test system: LOX IMVI; assay: Cytotoxicity against human LOXIMVI cells assessed as growth at 10^-5 M relative to control
[18] = test system: NCI-H226; assay: Cytotoxicity against human NCI-H226 cells assessed as growth at 10^-5 M relative to control
[19] = test system: NCI-H522; assay: Cytotoxicity against human NCI-H522 cells assessed as growth at 10^-5 M relative to control
[20] = test system: SK-MEL-5; assay: Cytotoxicity against human SK-MEL-5 cells assessed as growth at 10^-5 M relative to control
[21] = test system: NCI-H322M; assay: Cytotoxicity against human NCI-H322M cells assessed as growth at 10^-5 M relative to control
[22] = test system: MDA-MB-231; assay: Cytotoxicity against human MDA-MB-231 cells assessed as growth at 10^-5 M relative to control
[23] = test system: MDA-MB-468; assay: Cytotoxicity against human MDA-MB-468 cells assessed as growth at 10^-5 M relative to control
[24] = test system: NCI/ADR-RES; assay: Cytotoxicity against human NCI/ADR-RES cells assessed as growth at 10^-5 M relative to control

SMILES	CC50 at 48 h [1]	inhibition of growth at 10 µM [2]	growth, % of control at 10 µM [3]	growth, % of control at 10 µM [4]	growth, % of control at 10 µM [5]	growth, % of control at 10 µM [6]	growth, % of control at 10 µM [7]	growth, % of control at 10 µM [8]	growth, % of control at 10 µM [9]	growth, % of control at 10 µM [10]	growth, % of control at 10 µM [11]	growth, % of control at 10 µM [12]	growth, % of control at 10 µM [14]	growth, % of control at 10 µM [15]	growth, % of control at 10 µM [17]	growth, % of control at 10 µM [20]	growth, % of control at 10 µM [21]	growth, % of control at 10 µM [22]	growth, % of control at 10 µM [23]	growth, % of control at 10 µM [24]	other results
COc1ccc(CCNc2ncnc3c2ncn3[C@H]2C[C@H]3[C@H](CO)[C@@H]2C[C@@H]3Cl)cc1	350 µM	94.7%	86.7%	102%	82.8%	100%	105%	99.9%	114%	95.5%	87.9%	108%	99.6%	97.7%	96.7%	87%	89.2%	100%	101%	86.5%	growth, % of control at 10 µM [13]: 104%; growth, % of control at 10 µM [16]: 93.6%; growth, % of control at 10 µM [18]: 102%; growth, % of control at 10 µM [19]: 56.7%
OC[C@H]1[C@@H]2C[C@H](n3cnc4c(NCCc5ccccc5)ncnc43)[C@H]1C[C@@H]2Cl	143 µM	120%	84.1%	89.1%	91.1%		103%	95.5%	92.4%	81.7%	95.3%	99.7%	93.1%	104%	92.7%	73.9%	99.5%	104%	89.4%	88.2%	
CCOc1ncnc2c1ncn2[C@H]1C[C@H]2[C@H](CO)[C@@H]1C[C@@H]2Cl	> 1020 µM	95.4%	97.5%	104%	101%	95.8%	102%	88.8%	124%	95.7%	96.5%	109%	104%	92.5%	90.9%	100%	89.9%	97.9%	98.6%	90.8%	growth, % of control at 10 µM [13]: 108%; growth, % of control at 10 µM [16]: 108%; growth, % of control at 10 µM [18]: 94.5%; growth, % of control at 10 µM [19]: 92.4%
